According to US10443103B2, “Chemotherapy regimen selection” (Innomedicine, LLC, priority 2015, dated 2019):

Tested on: breast cancer
Test: Observed pathologic complete response (pCR) rate after neoadjuvant chemotherapy, GEO data sets
Assay type: in vivo, human
Conditions: Total of 7 GEO data sets, whole study population
Method: Herein, data was reanalyzed from several previous studies in which breast cancer patients were treated with neoadjuvant chemotherapy. Chemotherapies can be given at different stages of breast cancer: before surgery (also called neoadjuvant chemotherapy), after surgery and after metastasis. Neoadjuvant chemotherapy is often used to shrink tumors to make them more operable. There are two main categories of cytotoxic chemotherapy drugs for breast cancer: anthracyclines and taxanes. Many different combinations of the two types of drugs have been used for treating breast cancer, despite the fact that no effective guidelines are available for the selection of a specific regimen for a patient (Dotan, et al., 2010). Herein, data was collected from 1111 breast cancer patients from GEO database (Gene Expression Omnibus (Edgar, et al., 2002, Barrett, et al., 2013)), where clinical information including responses to chemotherapy and gene expression data are available. […] Among the 1111 patients, 21.2% of them have pCR and the rest have RD as their responses. […]
1111 breast cancer tumor samples were collected from 7 data series in GEO database (Gene Expression Omnibus (Takada, et al., 2012, Albain, et al., 2010)) (Table 2). […] R (Liu, et al., 2012) package Affyio (Edgar, et al., 2002) was used to read and normalize the Affymetrix® data. […]

## CC(=O)O[C@@]12CO[C@@H]1C[C@H](O)[C@@]1(C)C(=O)[C@H](O)C3=C(C)[C@@H](OC(=O)[C@H](O)[C@@H](NC(=O)OC(C)(C)C)c4ccccc4)C[C@@](O)([C@@H](OC(=O)c4ccccc4)[C@H]21)C3(C)C [docetaxel]
  percentage of patients who have pCR: 33.1%

## CC(=O)O[C@H]1C(=O)[C@@]2(C)[C@H]([C@H](OC(=O)c3ccccc3)[C@]3(O)C[C@H](OC(=O)[C@H](O)[C@@H](NC(=O)c4ccccc4)c4ccccc4)C(C)=C1C3(C)C)[C@]1(OC(C)=O)CO[C@@H]1C[C@@H]2O [paclitaxel]
  percentage of patients who have pCR: 19.7%
